The values below come from patent US20090325978A1, “STABLE LYOPHILIZED PREPARATION” (priority 2006, published 2009).

Bounds are passed on as bounds.

Series [1] can be described thus: solubility of the compound represented by formula (1) in pH regulating solution, HPLC. Type of series: physicochemical. Conditions: thermodynamic from solid, 50 mM citric acid pH regulator with sucrose and polyethylene glycol 600, 1 hour at 5° C. As for the experimental part:
0.525 g of citric acid monohydrate was dissolved in injection-use distilled water, and a sodium hydroxide solution was used to adjust the pH while 5 g of sucrose and 1 g of polyethylene glycol 600 (stabilizer) were dissolved, thereby preparing 50 mL of various 50 mM pH regulators (with a pH of 5.6, 5.8, 6.0, 6.2, 6.4, or 6.6) containing sucrose and the stabilizer. 3 mL of the pH regulating solution thus prepared was put into a 5 mL vial containing approximately 9 mg of the compound represented by formula (1), and this was stored for 1 hour at 5° C. while being stirred. Thereafter, the solution (including a suspension) was filtered (0.22 μm filter), the first 1 mL of the filtrate was discarded, and the solution thus obtained was subjected to high-performance liquid chromatography (HPLC) to measure the concentration of the compound represented by formula (1), which was termed the solubility of the compound represented by formula (1). The pH of the solution was also measured at the same time.

Series [2] can be described thus: pKa of the compound represented by formula (1). Type of series: physicochemical.
A short description of series [3]: formulation study of the compound represented by formula (1): stability and crystal dissolution. It counts as physicochemical.
Series [4] concerns VEGF (vascular endothelial growth factor) production. Conditions: low-oxygen state in vitro; cited from earlier work.
For the next series, the system named is solid tumor cell. To be noted: in vivo; cited from earlier work.

As usually defined, the solubility is how much of the substance goes into solution per volume. Read a low solubility as a poorly soluble substance. For orientation: pKa means the negative logarithm of the acid dissociation constant. A high value points to a weaker acid or stronger base. With `CCC(O)C(C)C1OC1CC(C)(O)/C=C/C=C(\C)C1OC(=O)CC(O)CCC(C)(O)C(OC(=O)N2CCN(C3CCCCCC3)CC2)/C=C/C1C` (stereo not drawn) [compound represented by formula (1), (8E,12E,14E)-7-((4-cycloheptylpiperazin-1-yl)carbonyl)oxy-3,6,16,21-tetrahydroxy-6, 10,12,16,20-pentamethyl-18,19-epoxytricosa-8,12,14-trien-11-olide], the solubility at 1 h in series [1] (aqueous with cosolvent or surfactant or cyclodextrin, pH 5.79) is > 2440 µg/mL; in series [1] (aqueous with cosolvent or surfactant or cyclodextrin, pH 5.99), > 2310 µg/mL; in series [1] (aqueous with cosolvent or surfactant or cyclodextrin, pH 6.51) it was > 2720 µg/mL; in series [1] (aqueous with cosolvent or surfactant or cyclodextrin, pH 6.81), 2570 µg/mL; in series [1] (aqueous with cosolvent or surfactant or cyclodextrin, pH 7.04), 1800 µg/mL; in series [1] (pH 6.2, aqueous with cosolvent or surfactant or cyclodextrin, pH 6.20), > 2260 µg/mL. Besides, in series [2], the pKa is ~7.9. In series [3], the “stability in the form of a crystalline powder” value is “good stability”. Further, the stability in solution entry in series [3] (formulation of an injection) is “not sufficiently stable”. Further, the crystal dissolution result in series [3] (packed powder) is “slow”. The “action on VEGF production” value in series [4] is given as “suppressing VEGF (vascular endothelial growth factor) production”. Besides, the “action on solid tumor cell proliferation” value in the series on solid tumor cell is on record as “suppressing solid tumor cell proliferation”.
